Experimental data: patent US20080194540A1, “Use of a Tricyclic Antidepressant Drug For Promoting Endocytosis” (RINA NETZWERK RNA-TECHNOLOGIEN GMBH, priority 2003, published 2008)

Legend:
HepG2 cells = experiment: Mammal cells system transfection with luciferase plasmid (luciferase activity); assay type: cell-based; conditions: FIG. 1b, concentration series, ordinate values standardized to chloroquine
Procedure: HepG2 cells were drawn in Dulbecco's Modified Eagle Medium (DMEM, Gibco BRL, Eggenstein, Germany), supplemented with 10% FBS (fetal bovine serum, Gibco) and 1 μg/ml insulin. On day 1, the cells were removed by means of trypsination, washed and distributed on the wells of a 24-well tissue culture dish, namely 1.5·10^7 cells per well.
24 hours later the transfection tests were performed with the luciferase plasmid from example 1 with different substances at approx. 70 to 80% confluence. The supernatant was removed, and then a mixture (250 μl) containing medium, 12.5 μl dextran (10 mg/ml), 0.5 μl of the plasmid and the respective substance was added to every well. After 2.5 hours incubation at 37° C., the supernatant was removed, and 500 μl complete medium were added to each well. On day 5, the luciferase activity was measured by using the Dual Luciferase® Reporter Assay Kit (Promega, Mannheim, Germany). For this purpose, 48 hours after the transfection, the cell culture supernatants were removed, and the cells were solubilized after addition of 100 μl 1× lysis buffer per well (Promega) for 20 minutes at 20° C. on a slow shaker. 20 μl of the cell-free supernatant were transferred into a 96-well plate (Corning and Costar, Wiesbaden, Germany) and reacted with 100 μl luciferase assay buffer. The luciferase activity was measured with a luminometer (EG&G Berthold MicrolumatPlus).
For each used substance, the optimum concentration was determined by means of concentration series. For this purpose, concentration series of the respective substances were used. For comparing, corresponding measurements were performed with chloroquine. […] The ordinate values are standardized to chloroquine.

[1] = test system: yeast cells (strain RPY10); experiment: Yeast system transfection with pFL1 plasmid (cfu relative to negative control); assay type: cell-based, Saccharomyces cerevisiae; conditions: FIG. 1a, concentration series, ordinate values standardized to chloroquine
Procedure: A first cell system is a yeast system. The transfection protocol corresponded to that of the document B. Neukamm et al., Biochimica et Biophysica Acta 1572:67-76 (2002). For the measurements, a lab robot (Zinsser, Frankfurt, Germany) was used, and a pipetting protocol was prepared.
Yeast precultures were drawn from cultures of a −70° C. glycerol stock of the strain RPY10 (R. C. Piper et al., Eur J Cell Biol 65:305-318 (1995)) for 72 hours. In the main culture, the cells were drawn over night in YPD medium up to a cell density of 5 to 8·10^7 cells/ml. 12·10^9 cells were harvested and washed twice with the same volume of distilled water. The cells were made competent for the transfection by soaking in distilled water for 30 minutes at 4° C. The competent cells were harvested and resuspended in 10 ml 34% sucrose, adjusted with HCl to pH 4. The suspension was immediately transferred into a sterilized 40 ml glass tube (Zinsser Analytik, Frankfurt, Germany), which were then sealed by an aluminum foil. The tubes were then placed on a shaker on the platform of the lab robot and treated for 40 seconds at 300 rpm. The suspension was automatically distributed into the wells of a 96-well microtiter plate (80 μl each by using stainless steel tips).
The subsequent pipetting protocol was as follows. First, solutions of a substance according to the invention or of a reference substance in different concentrations were added. Exactly 5 minutes later, 10 μl of a solution or suspension of the pFL1 plasmid (0.15 μg/μl) of example 1 were automatically added to the mixture of cells and substance. Some wells were used for a negative control, and only the used solvents and the plasmid were added to the cell suspension, not however the substance. After termination of the pipetting protocol, the plate was covered and placed on the Desyre mixer (Zinsser Analytik). After vortexing for 1 minute at 1,300 rpm, an incubation was performed at 28° C. for 18-20 hours. After the incubation, 110 μl distilled water each were slowly added. Then the cells of each well were transferred to 6-well plates (PS Macroplate, Greiner), filled up with 4 ml WMIXura (Neukamm et al., see above). The wells of the microtiter plate were each washed with 50 μl distilled water, and the washing solution was pipetted on the solid surface of the WMIXura. The macroplates were left dry and incubated for 4 days at 28° C.
Colony forming units (cfu) were then counted in every well. The obtained cfu values were related to the cfu values of the negative control. This ratio is a measure for the transfection effectivity.
For each used substance, the optimum concentration was determined by means of concentration series. For this purpose, concentration series of the respective substances were used. […]

With Clc1ccc2c(c1)C(N1CCNCC1)=Nc1ccccc1O2 [amoxapine] the “optimum concentration for promoting transfection, compared to chloroquine” value (“optimum concentration … compared to chloroquine” for short) (HepG2 cells) was “smaller” and the “optimum concentration … compared to chloroquine” value [1] was “smaller”.

With CN(C)CCCN1c2ccccc2Sc2ccc(Cl)cc21 [chlorpromazine] the “optimum concentration … compared to chloroquine” value (HepG2 cells) was “smaller” and the “optimum concentration … compared to chloroquine” value [1] was “smaller”.

CN(C)CCC=C1c2ccccc2COc2ccccc21 [doxepine] was tested, and the “optimum concentration … compared to chloroquine” value (HepG2 cells) was “similarly high” and the “optimum concentration … compared to chloroquine” value [1] was “similarly high”.

With CNCCCC12CCC(c3ccccc31)c1ccccc12 [maprotyline] the “optimum concentration … compared to chloroquine” value (HepG2 cells) was “smaller” and the “optimum concentration … compared to chloroquine” value [1] was “smaller”.
